Measured values from ChEMBL document CHEMBL5604062, “ASAP - ZIKV NS2B-NS3 protease fluorescence dose response” (2024).
Values joined by “and” are separate entries in the source; they are usually repeats but may differ in a detail not shown here. Equal values may be shown once.

Biological target: Nonstructural protein 3 (Zika virus, UniProt A0A024AXB9)
Assay: Functional biochemical assay to identify treatments for viral infectious disease that targets Zika NS2B-NS3 protease. Utilizing a direct enzyme activity measurement method, reading the fluorescence intensity is used to characterize the relative potency of inhibitors as IC50.
Parameters: species or system PRVABC59

Nonstructural protein 3, sequence (A0A024AXB9 whole entry): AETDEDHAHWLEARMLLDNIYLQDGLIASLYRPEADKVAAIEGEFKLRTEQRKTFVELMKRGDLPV

SMILES | IC50
O=C(NCc1cnn(CCO)c1)c1cccc2c1NC(=O)[C@]1(CCCN1)C2 | > 99.5 µM
O=c1ccccn1-c1ncc(Br)cn1 | > 99.5 µM
O=C(NC[C@H]1CCCO1)[C@H](Nc1ccc2c(c1)CNC2)c1cc(Cl)cc(C2CC2)c1 | 0.071 µM and 0.053 µM
CC(=O)NCc1cccc(NC(=O)c2cc(Cl)cc(NC(=O)OCc3ccccc3)c2)c1 | > 99.5 µM
O=C(N[C@H](C(=O)NCc1ccc(F)cc1)c1ccc(OCc2ccccc2)cc1)OCc1ccccc1 | > 99.5 µM
CC1(C)CN(C(=O)Nc2ccc3c(c2)CNC3)CC(F)(F)C1 | > 25 µM
CCn1c(=O)c(N2C[C@H]3CCS(=O)(=O)[C@H]3C2)nc2ccccc21 | > 99.5 µM
O=C1C[C@H]2[C@H](CCCN2C(=O)Nc2ccc3c(c2)CNC3)N1 | > 25 µM
NCc1cccc(NC(=O)[C@H]2COC3(CCOCC3)N2C(=O)OCc2ccccc2)c1 | > 99.5 µM
N=C(N)Nc1ccc(OC(=O)Nc2ccccc2)cc1 | > 100 µM
c1cc(CN2CCC(c3c[nH]c4ncccc34)CC2)c2[nH]ccc2c1 | > 99.5 µM
O=C(O)c1cc(Cl)ccc1NS(=O)(=O)c1ccc(-c2ccncc2)cc1 | > 99.5 µM
N#C[C@H](Nc1cccc(-c2nn[nH]n2)c1)c1cc(Cl)cc(NC(=O)OCc2ccccc2)c1 | 24.6 µM and 27.6 µM and 24.8 µM
CCc1ccc(NS(=O)(=O)c2ccc(Oc3ccccc3Cl)cc2)c(C(=O)NC)c1 | > 99.5 µM
O=C(O)c1cc(Cl)ccc1NS(=O)(=O)c1ccc(OCc2nnnn2C2CCC2)cc1 | > 99.5 µM
NCc1ccccc1Oc1ccc(S(=O)(=O)Nc2ccc(Cl)cc2C(=O)NCC(F)(F)F)cc1 | > 99.5 µM
O=C(Nc1ccc2c(c1)CNC2)c1cc(Cl)cc2cn[nH]c12 | 0.047 µM and 0.042 µM
Cc1c(C(=O)Nc2cccc(-c3nnn[nH]3)c2)n[nH]c1-c1ccc(Cl)cc1 | > 99.5 µM
NCc1cccc(NC(=O)[C@@H](NC(=O)OCc2ccccc2)c2ccc(Cl)cc2)c1 | > 99.5 µM
CCn1nccc1-c1cn(CC)c(=O)c(N2CC[C@@H](CO)C2)n1 | > 99.5 µM
O=C(Nc1cc(Cl)cc(-c2cnn3ccc(C(=O)O)cc23)c1)OCc1ccccc1 | > 99.5 µM
CC(C)(C)OC(=O)NCc1cccc(NC(=O)c2cc(N)cc(Cl)c2)c1 | > 99.5 µM
O=C1Cc2c(cccc2C(=O)NC[C@H]2CCCN(c3nccs3)C2)N1 | > 25 µM

SMILES | IC50
CC(C)CC(=O)N1CCC([C@H](NC(=O)OCc2ccccc2)C(=O)Nc2cccc(CN)c2)CC1 | > 99.5 µM
C[C@H]1CNC[C@H](C(=O)Nc2cccc(CN)c2)C1 | > 99.5 µM
C[C@]1(C(=O)N[C@H](C(=O)Nc2cccc(CN)c2)c2ccc(OCc3ccccc3)cc2)CCCO1 | > 99.5 µM
O=C(Nc1cc(Cl)cc(C(=O)Nc2ccc3c(c2)C(=O)NC3)c1)OCc1ccccc1 | > 99.5 µM
Cn1ncc2c(C(=O)Nc3ccc4c(c3)CNC4)cc(Cl)cc21 | 0.047 µM and 0.027 µM
N#Cc1cc(Cl)cc(C(=O)Nc2cccc(-n3nn[nH]c3=O)c2)c1 | > 99.5 µM
Cc1c(C(=O)Nc2cc(CCCN)ccn2)cc(C(C)C)n1C | > 99.5 µM
NCc1nc2cc(Cl)ccc2n1Cc1ccc(-c2nn[nH]n2)cc1 | > 99.5 µM
NCc1cccc(NC(=O)[C@@H](NC(=O)OCc2ccccc2)C2CCCCC2)c1 | > 99.5 µM
Cc1c(C(=O)Nc2cc(C3(C)OCCO3)ccn2)cc(C2CC2)n1C | > 25 µM
NC1(c2cccc(NC(=O)c3cc(Cl)cc(NC(=O)OCc4ccccc4)c3)c2)CC1 | > 99.5 µM
O=C(N[C@@H](C(=O)Nc1ccncc1)c1ccc(OCc2ccccc2)cc1)OCc1ccccc1 | > 99.5 µM
COc1ccc(S(=O)(=O)Nc2ccc(C(=O)Nc3nc4ccccc4s3)cc2)cc1 | > 99.5 µM
Clc1cc(CNc2ccc3c(c2)[C@@H]2CC[C@H]3N2)c2cn[nH]c2c1 | > 25 µM
N#C[C@H](Nc1ccc(CC(=O)O)cn1)c1cc(Cl)cc(C2CC2)c1 | > 99.5 µM
Cc1nc(C2CC2)[nH]c1C(=O)Nc1cc(-c2cccnc2)ccn1 | > 25 µM
CCn1ccnc(N2CC[C@H](c3c[nH]c4ccccc34)C2)c1=O | > 99.5 µM
O=C(Nc1cc(-c2cccnc2)ccn1)c1cc2n(n1)CC(F)(F)C2 | > 25 µM
COC(=O)Cc1ccccc1-c1ccc(S(=O)(=O)Nc2ccc(Cl)cc2C(=O)O)cc1 | > 99.5 µM
CCOC(=O)c1csc([C@H]2CCCN2C(=O)Nc2ccc3c(c2)CNC3)n1 | > 25 µM
Cc1n[nH]cc1CC(=O)N1CCCC12CCN(C(=O)c1ccnc(CO)c1)CC2 | > 99.5 µM
Cc1ncc(COc2ccc([C@H](NC(=O)OCc3ccccc3)C(=O)Nc3cccc(CN)c3)cc2)cn1 | > 99.5 µM
Cn1nc([C@@H]2CCCN2)nc1NC(=O)c1cc(Cl)cc(NC(=O)OCc2ccccc2)c1 | > 99.5 µM

SMILES | IC50
O=C(O)c1ccc(Cc2c[nH]c3ccc(Cl)cc23)cc1 | > 99.5 µM
NCc1cccc(NC(=O)[C@@H]2C[C@@H](O)CN2C(=O)C23CC4CC(CC(C4)C2)C3)c1 | > 99.5 µM
CCN1CCN(c2ccc(NS(=O)(=O)c3ccc(Cl)cc3C(=O)O)cc2)CC1 | > 99.5 µM
N#Cc1ccccc1O[C@H]1CC[C@H](NS(=O)(=O)c2ccc(Cl)cc2C(=O)O)CC1 | > 99.5 µM
CCn1c(=O)c(N2C[C@@H]3CN(C4CCC4)C[C@@H]3C2)nc2ccccc21 | > 99.5 µM
CCn1ccnc(N2CC[C@@H](Cc3ccncc3)C2)c1=O | > 99.5 µM
O=C(O)c1cc(Cl)ccc1S(=O)(=O)NC1CCN(Cc2ccccn2)CC1 | > 99.5 µM
CCn1c(=O)c(N2C[C@H]3OCCN(C(C)=O)[C@H]3C2)nc2ccccc21 | > 99.5 µM
CCCC[C@H](NC(C)=O)C(=O)N[C@H](C(=O)NCc1ccc(C(N)=O)cc1)c1ccc(OCc2ccccc2)cc1 | > 99.5 µM
NC1(c2cccc(NS(=O)(=O)c3ccc(Oc4ccccc4Cl)cc3)c2)CCC1 | > 99.5 µM
NCc1cccc(NC(=O)[C@@H](NC(=O)OCc2ccccc2)c2ccc(-c3ccc4cn[nH]c4c3)cc2)c1 | 6.07 µM and 5.74 µM
c1ccc2c(CN3CCCc4cnccc4C3)n[nH]c2c1 | > 99.5 µM
Cc1c(C(=O)Nc2cc([C@H]3CCOC3)ccn2)cc(C2CC2)n1C | 0.177 µM and 0.082 µM and 0.137 µM
C[C@H]1NCCc2c(-c3ccc4[nH]c(C(=O)O)cc4c3)cc(F)cc21 | > 99.5 µM
C=CC[C@H]1NCc2cc(N[C@H](C(=O)NC(C)C)c3cccc4[nH]ncc34)ccc21 | > 25 µM
Cc1cc(C(F)(F)F)nc(C(=O)Nc2cccc(CN)c2)n1 | > 99.5 µM
O=C(c1cc(Cl)cc2[nH]ncc12)N1CCC[C@H]1C1CCNCC1 | > 99.5 µM
c1cncc(-c2cccc(NCc3c[nH]c4ccccc34)c2)c1 | > 99.5 µM
NCCCOc1cc(-c2ccc(N)nc2)cc2c1COB2O | > 99.5 µM
O=C(Nc1ccc2c(c1)CNC2)c1ncnc2ccsc12 | > 99.5 µM
C[C@H]1CN(C(=O)c2cccc3c(CN)cccc23)CCC12CCNCC2 | > 99.5 µM
NC1(c2cccc(NS(=O)(=O)c3ccc(Oc4ccccc4Cl)cc3)c2)CCOCC1 | > 99.5 µM

Other lines, results leading:

IC50 | SMILES
> 25 µM | COC(=O)c1cc(C(=O)Nc2ccc3c(c2)CNC3)cc2[nH]ccc12
3.51 µM | Fc1cc(CNc2ccc3c(c2)CNC3)c2cn[nH]c2c1
0.533 µM | CC(C)NC(=O)[C@H](Nc1ccc2c(c1)CN(C)C2)c1cc(Cl)cc2[nH]ncc12
> 25 µM | O=C(Nc1ccc2c(c1)CNC2)c1cc(F)c2[nH]nnc2c1
> 25 µM | Cc1c(C(=O)Nc2cc(-c3cccnc3)ccn2)cc(C(C)(C)C)n1C
9.6 µM | NCc1cccc(CCc2cc(Cl)cc(NC(=O)OCc3ccccc3)c2)c1
> 25 µM | O=C1Cc2c(cccc2C(=O)N[C@H]2CCc3cnccc32)N1
7.26 µM | N#C[C@H](Nc1ccc2c(c1)CNC2)c1cccc2ncccc12
30.3 µM | O=C(O)c1cc(Cl)c(F)cc1NS(=O)(=O)c1ccc(Oc2ccccc2)cc1
57.2 µM | NCc1cccc(NC(=O)[C@H](NS(=O)(=O)c2cccc(Cl)c2)c2ccc(OCc3ccccc3)cc2)c1
34.4 µM | O=C(O)c1cc(Cl)ccc1NS(=O)(=O)c1ccc(-c2cncs2)cc1
44.9 µM | O=C(/C=C/c1ccccc1)C(=O)N1CCN(CCc2ccccc2)CC1
0.116 µM | Cc1cnccc1-c1cc(NC(=O)c2cc(F)cc3[nH]ncc23)cc2c1CNC2
0.197 µM | O=C(NCC(F)F)[C@H](Nc1ccc2c(c1)CNC2)c1cc(Cl)cc(Cl)c1OCCN1CCOCC1
10.9 µM | Cn1nc(CNc2ccc3c(c2)CNC3)cc1C1CC1
23.5 µM | O=C(Nc1ccc2c(c1)CNC2)c1ccc2ncsc2n1
1.15 µM | C=CC[C@H]1NCc2cc(NC(=O)c3cccc4c3CC(=O)N4)ccc21
10.7 µM | NCCc1ccc(NC(=O)c2cc(Cl)cc(NC(=O)OCc3ccccc3)c2)cc1

IC50 | SMILES
52.3 µM | CCc1ccc(S(=O)(=O)N[C@@H](C(=O)Nc2cccc(CN)c2)c2ccc(OCc3ccccc3)cc2)cc1
1.61 µM | CCc1cc(C(=O)Nc2ccc3c(c2)CNC3)cc2cn[nH]c12
43.2 µM | Cc1ccc(OCc2ccccc2Cl)c(C(=O)Nc2cccc(CN)c2)c1
0.589 µM | CNC(=O)[C@H](Nc1cc(CN)cc(-c2nn[nH]n2)c1)c1cc(Cl)cc(C2CC2)c1
57.3 µM | O=C(Nc1ccc2c(c1)CNC2)c1ccccn1
16.6 µM | NCc1cccc(C(=O)Nc2cc(Cl)cc(NC(=O)OCc3ccccc3)c2)c1
0.144 µM | NCCc1csc2cc(C(=O)Nc3ccc4c(c3)CNC4)ccc12
95.2 µM | O=C(Nc1cc(Cl)cc(-c2cn(C3CCCC3)nc2C(=O)O)c1)OCc1ccccc1
1.99 µM | N#Cc1ccc(Cl)c(C(=O)Nc2ccc3c(c2)CNC3)c1
0.554 µM | O=C(Nc1ccc2c(c1)CNC2)c1cc(Br)cc2c1nc1n2CCCC1
6.43 µM | O=C1NCc2c1cccc2C(=O)Nc1ccc2c(c1)CNC2
95.5 µM | NCc1cccc(NC(=O)[C@@H](NC(=O)OCc2ccccc2)c2ccc(OCC3CCOCC3)cc2)c1
10.3 µM | N#C[C@H](Nc1ccc2c(c1)CNC2)c1n[nH]c2cc(C(F)(F)F)ccc12
3.94 µM | Cc1cc(-c2ccc([C@@H](NC(=O)OCc3ccccc3)C(=O)Nc3cccc(CN)c3)cc2)cs1
5.86 µM | Cc1cc(C(=O)Nc2cccc(CN)c2)c(NC(=O)[C@H]2CCCO2)s1
67 µM | O=C(O)c1cc(Cl)cc(F)c1NS(=O)(=O)c1ccc(Oc2ccccc2Cl)cc1
1.22 µM | O=C(Nc1ccc(C2CNC2)cc1)c1cc(Cl)cc2[nH]ncc12
3.83 µM | CC(C)NC(=O)[C@H](Nc1ccc2c(c1)CN(C)C2(C)C)c1cc(Cl)cc2[nH]ncc12
